Results as given in patent publication US20240210412A1, “SULFONYL-TRIAZOLE COMPOUNDS USEFUL AS LIGANDS AND INHIBITORS OF PROSTAGLANDIN REDUCTASE 2” (University of Virginia Patent Foundation, priority 2021, published 2024).

What was measured:
Assay in all cases: SILAC LC-MS ABPP
Assay type in all cases: cell-based
Settings in all cases: 25 μM 2 h, live DM93 cells
[1] = target: T1, Q13330 (Homo sapiens, UniProt Q13330)
T1 construct: performing SuTEx compound screening directly in cells; endogenous in cells; host or cells: DM93 cells (SILAC), soluble fraction
Summary of the method: (§1)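 DM93 SILAC cells, ligand 25 μM vs DMSO, 2 h; HHS-475 100 μM, 2 h; CuAAC desthiobiotin tag; 1:1 pool; trypsin; avidin enrichment; LC-MS/MS site quantification.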

[2] = target: T2, O14578 (Homo sapiens, UniProt O14578)
T2 construct: endogenous in cells; host or cells: DM93
Summary of the method: as §1

[3] = target: T3, O95373 (Homo sapiens, UniProt O95373)
T3 construct: endogenous in cells; host or cells: DM93 cells (SILAC)
T3 sequence (O95373 whole entry): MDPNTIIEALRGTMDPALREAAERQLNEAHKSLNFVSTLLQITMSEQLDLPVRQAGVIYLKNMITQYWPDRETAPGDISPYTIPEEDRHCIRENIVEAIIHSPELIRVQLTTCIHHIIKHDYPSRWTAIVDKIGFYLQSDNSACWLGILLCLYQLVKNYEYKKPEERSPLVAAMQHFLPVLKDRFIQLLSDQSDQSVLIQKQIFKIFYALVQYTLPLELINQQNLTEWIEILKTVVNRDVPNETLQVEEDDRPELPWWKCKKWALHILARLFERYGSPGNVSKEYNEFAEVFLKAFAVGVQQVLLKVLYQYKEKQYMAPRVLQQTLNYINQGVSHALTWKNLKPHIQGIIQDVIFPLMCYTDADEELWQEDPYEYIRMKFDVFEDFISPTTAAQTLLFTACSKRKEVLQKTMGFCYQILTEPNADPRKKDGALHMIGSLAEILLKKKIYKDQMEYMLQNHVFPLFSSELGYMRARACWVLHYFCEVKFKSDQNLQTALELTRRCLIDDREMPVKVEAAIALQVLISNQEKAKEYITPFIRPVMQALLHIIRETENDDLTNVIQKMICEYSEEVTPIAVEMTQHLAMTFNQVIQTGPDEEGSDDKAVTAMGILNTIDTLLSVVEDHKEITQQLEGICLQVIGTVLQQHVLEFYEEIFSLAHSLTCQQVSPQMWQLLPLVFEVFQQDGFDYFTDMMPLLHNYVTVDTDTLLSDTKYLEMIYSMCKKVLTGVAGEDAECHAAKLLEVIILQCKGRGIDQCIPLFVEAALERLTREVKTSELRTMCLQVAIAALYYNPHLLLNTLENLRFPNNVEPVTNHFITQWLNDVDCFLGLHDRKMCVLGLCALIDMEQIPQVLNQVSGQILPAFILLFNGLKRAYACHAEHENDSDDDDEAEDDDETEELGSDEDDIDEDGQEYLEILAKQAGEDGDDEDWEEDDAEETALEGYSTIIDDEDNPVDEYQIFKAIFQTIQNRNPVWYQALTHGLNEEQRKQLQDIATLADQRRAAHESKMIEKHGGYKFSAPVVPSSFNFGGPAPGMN
Summary of the method: as §1

[4] = target: T4, P82650 (Homo sapiens, UniProt P82650)
T4 construct: performing SuTEx compound screening directly in cells; endogenous in cells; host or cells: DM93 cells (SILAC)
Summary of the method: as §1

[5] = target: T5, P12081 (Homo sapiens, UniProt P12081)
T5 construct: endogenous in cells; host or cells: DM93 cells (SILAC)
T5 sequence (P12081 whole entry): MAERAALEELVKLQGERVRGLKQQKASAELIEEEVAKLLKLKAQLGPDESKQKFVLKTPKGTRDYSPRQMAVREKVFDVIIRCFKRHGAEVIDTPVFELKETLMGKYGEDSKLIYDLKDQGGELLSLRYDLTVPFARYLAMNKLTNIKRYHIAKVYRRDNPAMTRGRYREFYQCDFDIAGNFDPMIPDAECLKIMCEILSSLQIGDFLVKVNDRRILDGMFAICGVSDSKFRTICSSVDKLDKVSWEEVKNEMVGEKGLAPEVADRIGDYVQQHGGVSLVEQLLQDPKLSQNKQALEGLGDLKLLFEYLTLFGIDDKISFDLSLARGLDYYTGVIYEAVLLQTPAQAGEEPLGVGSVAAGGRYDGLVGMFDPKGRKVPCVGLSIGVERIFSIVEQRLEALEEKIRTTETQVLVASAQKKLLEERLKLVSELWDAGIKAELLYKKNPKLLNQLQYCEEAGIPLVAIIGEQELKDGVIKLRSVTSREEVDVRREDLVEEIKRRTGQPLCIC
Summary of the method: as §1

[6] = target: T6, Q15654 (Homo sapiens, UniProt Q15654)
T6 construct: performing SuTEx compound screening directly in cells; endogenous in cells; host or cells: DM93 cells (SILAC), soluble fraction
T6 sequence (Q15654 whole entry): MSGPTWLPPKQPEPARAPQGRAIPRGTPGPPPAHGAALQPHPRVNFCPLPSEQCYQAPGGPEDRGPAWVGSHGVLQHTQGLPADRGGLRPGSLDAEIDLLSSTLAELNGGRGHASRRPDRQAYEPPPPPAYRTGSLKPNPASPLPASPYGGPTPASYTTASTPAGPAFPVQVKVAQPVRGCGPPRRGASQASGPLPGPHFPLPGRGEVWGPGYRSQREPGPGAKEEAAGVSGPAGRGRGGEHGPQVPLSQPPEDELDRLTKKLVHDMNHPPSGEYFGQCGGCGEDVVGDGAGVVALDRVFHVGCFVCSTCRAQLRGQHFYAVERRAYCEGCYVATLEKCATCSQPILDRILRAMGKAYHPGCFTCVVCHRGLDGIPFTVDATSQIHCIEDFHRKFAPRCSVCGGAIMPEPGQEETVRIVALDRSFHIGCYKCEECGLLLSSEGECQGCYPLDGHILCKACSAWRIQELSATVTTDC
Summary of the method: as §1

[7] = target: T7, Q9C0C2 (Homo sapiens, UniProt Q9C0C2)
T7 construct: endogenous in cells; host or cells: DM93 cells (SILAC), treated live; soluble proteome analysed
Summary of the method: as §1

[8] = target: T8, Q96A72 (Homo sapiens, UniProt Q96A72)
T8 construct: endogenous in cells; host or cells: DM93 cells (SILAC), treated live; soluble proteome analysed
T8 sequence (Q96A72 whole entry): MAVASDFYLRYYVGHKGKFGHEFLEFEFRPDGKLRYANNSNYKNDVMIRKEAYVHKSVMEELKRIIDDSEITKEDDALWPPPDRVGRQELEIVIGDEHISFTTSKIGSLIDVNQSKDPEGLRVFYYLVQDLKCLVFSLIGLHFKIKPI
Summary of the method: as §1

[9] = target: T9, P39019 (Homo sapiens, UniProt P39019)
T9 construct: Probe-modified proteins from the soluble fraction were conjugated to a desthiobiotin-azide tag; endogenous in cells; host or cells: DM93 (SILAC)
Summary of the method: as §1

[10] = target: T10, Q15154 (Homo sapiens, UniProt Q15154)
T10 construct: performing SuTEx compound screening directly in cells; endogenous in cells; host or cells: DM93 cells (SILAC), soluble fraction
Summary of the method: as §1

[11] = target: T11, Q8IX04 (Homo sapiens, UniProt Q8IX04)
T11 construct: endogenous in cells; host or cells: DM93 cells (SILAC), live-cell treatment
T11 sequence (Q8IX04 whole entry): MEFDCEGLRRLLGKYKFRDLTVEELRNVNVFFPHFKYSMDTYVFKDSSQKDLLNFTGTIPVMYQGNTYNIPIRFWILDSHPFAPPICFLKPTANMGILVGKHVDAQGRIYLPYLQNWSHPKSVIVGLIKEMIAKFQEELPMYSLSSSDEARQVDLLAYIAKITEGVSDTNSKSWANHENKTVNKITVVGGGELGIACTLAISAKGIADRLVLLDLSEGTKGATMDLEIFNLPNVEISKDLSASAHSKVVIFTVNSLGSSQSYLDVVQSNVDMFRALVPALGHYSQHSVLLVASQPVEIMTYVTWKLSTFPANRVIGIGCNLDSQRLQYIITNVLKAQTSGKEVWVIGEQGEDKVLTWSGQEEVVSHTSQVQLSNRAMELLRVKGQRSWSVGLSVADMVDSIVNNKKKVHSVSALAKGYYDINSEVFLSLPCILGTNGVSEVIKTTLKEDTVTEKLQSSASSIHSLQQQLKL
Summary of the method: as §1

[12] = target: T12, O43776 (Homo sapiens, UniProt O43776)
T12 construct: endogenous in cells; host or cells: DM93
Summary of the method: as §1

[13] = target: T13, Q9BWD1 (Homo sapiens, UniProt Q9BWD1)
T13 construct: endogenous in cells; host or cells: DM93 cells (SILAC), treated live; soluble proteome analysed
T13 sequence (Q9BWD1 whole entry): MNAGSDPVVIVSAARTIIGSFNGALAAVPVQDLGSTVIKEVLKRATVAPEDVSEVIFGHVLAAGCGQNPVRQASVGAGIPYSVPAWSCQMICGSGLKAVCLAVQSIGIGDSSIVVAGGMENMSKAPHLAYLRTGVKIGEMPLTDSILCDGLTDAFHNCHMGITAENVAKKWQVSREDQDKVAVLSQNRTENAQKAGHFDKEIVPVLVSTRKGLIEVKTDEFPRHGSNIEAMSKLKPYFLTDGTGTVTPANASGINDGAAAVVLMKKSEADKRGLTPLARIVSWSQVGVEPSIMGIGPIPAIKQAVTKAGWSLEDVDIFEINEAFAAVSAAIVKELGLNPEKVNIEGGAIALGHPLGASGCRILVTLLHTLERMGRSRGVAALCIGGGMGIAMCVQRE
Summary of the method: as §1

[14] = target: T14, P25789 (Homo sapiens, UniProt P25789)
T14 construct: endogenous in cells; host or cells: DM93 (SILAC)
Summary of the method: as §1

[15] = target: T15, Q6N069 (Homo sapiens, UniProt Q6N069)
T15 construct: performing SuTEx compound screening directly in cells; endogenous in cells; host or cells: DM93 cells (SILAC), soluble fraction
Summary of the method: as §1

[16] = target: T16, O43156 (Homo sapiens, UniProt O43156)
T16 construct: endogenous in cells; host or cells: DM93
T16 sequence (O43156 whole entry): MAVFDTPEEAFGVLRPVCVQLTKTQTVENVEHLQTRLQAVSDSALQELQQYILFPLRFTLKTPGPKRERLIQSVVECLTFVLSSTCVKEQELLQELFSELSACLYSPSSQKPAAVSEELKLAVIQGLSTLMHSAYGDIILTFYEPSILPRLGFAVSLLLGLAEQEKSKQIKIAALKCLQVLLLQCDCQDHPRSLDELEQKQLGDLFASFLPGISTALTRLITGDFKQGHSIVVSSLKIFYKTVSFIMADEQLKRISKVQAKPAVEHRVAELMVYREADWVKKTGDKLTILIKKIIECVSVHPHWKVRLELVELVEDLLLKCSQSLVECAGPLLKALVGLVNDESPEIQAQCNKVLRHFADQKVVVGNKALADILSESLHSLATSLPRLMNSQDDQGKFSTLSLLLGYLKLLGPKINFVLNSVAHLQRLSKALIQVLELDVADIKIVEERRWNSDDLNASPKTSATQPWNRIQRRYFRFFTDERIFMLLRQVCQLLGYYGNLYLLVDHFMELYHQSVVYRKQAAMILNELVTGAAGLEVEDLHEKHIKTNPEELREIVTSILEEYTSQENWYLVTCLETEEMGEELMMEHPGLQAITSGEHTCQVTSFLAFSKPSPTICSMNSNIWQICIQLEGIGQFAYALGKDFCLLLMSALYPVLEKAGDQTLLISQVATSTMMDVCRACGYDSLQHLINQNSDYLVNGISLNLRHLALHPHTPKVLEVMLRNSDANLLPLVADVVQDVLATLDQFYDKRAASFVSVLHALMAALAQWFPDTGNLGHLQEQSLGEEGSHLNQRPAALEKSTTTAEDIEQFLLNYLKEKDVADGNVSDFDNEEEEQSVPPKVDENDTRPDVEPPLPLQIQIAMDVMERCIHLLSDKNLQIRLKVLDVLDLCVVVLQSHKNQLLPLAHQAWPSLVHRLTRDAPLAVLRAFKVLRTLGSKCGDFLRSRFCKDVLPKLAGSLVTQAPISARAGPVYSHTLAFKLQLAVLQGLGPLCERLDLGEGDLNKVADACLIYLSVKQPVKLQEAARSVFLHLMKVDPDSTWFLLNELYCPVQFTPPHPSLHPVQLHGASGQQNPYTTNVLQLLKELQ
Summary of the method: as §1

[17] = target: T17, O94925 (Homo sapiens, UniProt O94925)
T17 construct: endogenous in cells; host or cells: DM93 cells (SILAC)
T17 sequence (O94925 55-669): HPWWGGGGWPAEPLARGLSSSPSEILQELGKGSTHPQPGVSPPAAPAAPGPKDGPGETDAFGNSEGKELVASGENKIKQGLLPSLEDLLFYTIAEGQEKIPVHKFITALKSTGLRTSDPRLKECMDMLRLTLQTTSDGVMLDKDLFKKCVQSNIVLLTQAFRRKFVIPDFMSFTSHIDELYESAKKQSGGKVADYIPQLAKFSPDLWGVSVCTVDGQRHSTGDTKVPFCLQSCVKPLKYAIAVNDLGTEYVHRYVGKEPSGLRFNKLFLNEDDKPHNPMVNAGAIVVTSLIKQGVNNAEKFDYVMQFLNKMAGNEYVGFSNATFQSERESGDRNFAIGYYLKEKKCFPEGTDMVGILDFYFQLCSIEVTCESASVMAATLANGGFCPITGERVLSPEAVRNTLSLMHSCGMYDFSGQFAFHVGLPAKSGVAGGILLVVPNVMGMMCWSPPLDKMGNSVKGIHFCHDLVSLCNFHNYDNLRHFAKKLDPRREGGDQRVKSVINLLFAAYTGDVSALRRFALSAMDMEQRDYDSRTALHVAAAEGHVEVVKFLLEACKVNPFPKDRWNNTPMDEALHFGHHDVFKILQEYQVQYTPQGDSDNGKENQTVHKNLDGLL
Summary of the method: as §1

SMILES: O=C(NC1CCCCC1)c1ccc(S(=O)(=O)n2cncn2)cc1 [HHS-0301, 4-((1H-1,2,4-triazol-1-yl)sulfonyl)-N-cyclohexylbenzamide]
- liganded tyrosine site 22 [1]: HHS0301.Y (tyrosine sites that showed >80% reductions (SR >5) in probe labeling in cells treated with compounds (liganded sites))
- liganded tyrosine site 818 [2]: HHS0301.Y (tyrosine sites that showed >80% reductions (SR >5) in probe labeling in cells treated with compounds (liganded sites))

SMILES: O=C(c1ccc(S(=O)(=O)n2cncn2)cc1)N1CCC(c2ccccc2)CC1 [HHS-0701, (4-((1H-1,2,4-triazol-1-yl)sulfonyl)phenyl)(4-phenylpiperidin-1-yl)methanone]
- liganded tyrosine site 416 [3]: HHS0701.Y (tyrosine sites that showed >80% reductions (SR >5) in probe labeling in cells treated with compounds (liganded sites))
- liganded tyrosine site 455 [3]: HHS0701.Y (tyrosine sites that showed >80% reductions (SR >5) in probe labeling in cells treated with compounds (liganded sites))
- liganded tyrosine site 163 [4]: HHS0701.Y (tyrosine sites that showed >80% reductions (SR >5) in probe labeling in cells treated with compounds (liganded sites))
- liganded tyrosine site 168 [5]: HHS0701.Y (tyrosine sites that showed >80% reductions (SR >5) in probe labeling in cells treated with compounds (liganded sites))
- liganded tyrosine site 172 [5]: HHS0701.Y (tyrosine sites that showed >80% reductions (SR >5) in probe labeling in cells treated with compounds (liganded sites))

SMILES: O=C(NCC1CC1)c1ccc(S(=O)(=O)n2cncn2)cc1 [HHS-0201, 4-((1H-1,2,4-triazol-1-yl)sulfonyl)-N-(cyclopropylmethyl)benzamide]
- liganded tyrosine site 157 [6]: HHS0201.Y (tyrosine sites that showed >80% reductions (SR >5) in probe labeling in cells treated with compounds (liganded sites))
- liganded tyrosine site 897 [7]: HHS0201.Y|HHS0301.Y|HHS0401.Y|HHS0701.Y (tyrosine sites that showed >80% reductions (SR >5) in probe labeling in cells treated with compounds (liganded sites))
- liganded tyrosine site 36 [8]: HHS0201.Y (tyrosine sites that showed >80% reductions (SR >5) in probe labeling in cells treated with compounds (liganded sites))
- liganded tyrosine site 54 [9]: HHS0201.Y (tyrosine sites that showed >80% reductions (SR >5) in probe labeling in cells treated with compounds (liganded sites))

SMILES: O=C(NCc1ccccc1)c1ccc(S(=O)(=O)n2cncn2)cc1 [HHS-0401, 4-((1H-1,2,4-triazol-1-yl)sulfonyl)-N-benzylbenzamide]
- liganded tyrosine site 1424 [10]: HHS0401.Y|HHS0701.Y (tyrosine sites that showed >80% reductions (SR >5) in probe labeling in cells treated with compounds (liganded sites))

SMILES: O=C(NC1CC1)c1ccc(S(=O)(=O)n2cncn2)cc1 [HHS-0101, 4-((1H-1,2,4-triazol-1-yl)sulfonyl)-N-cyclopropylbenzamide]
- liganded tyrosine site 158 [11]: HHS0101.Y|HHS0201.Y|HHS0301.Y (tyrosine sites that showed >80% reductions (SR >5) in probe labeling in cells treated with compounds (liganded sites))
- liganded tyrosine site 45 [12]: HHS0101.Y (tyrosine sites that showed >80% reductions (SR >5) in probe labeling in cells treated with compounds (liganded sites))
- liganded tyrosine site 237 [13]: HHS0101.Y|HHS0201.Y|HHS0301.Y|HHS0401.Y (tyrosine sites that showed >80% reductions (SR >5) in probe labeling in cells treated with compounds (liganded sites))
- liganded tyrosine site 19 [14]: HHS0101.Y (tyrosine sites that showed >80% reductions (SR >5) in probe labeling in cells treated with compounds (liganded sites))
- liganded tyrosine site 66 [14]: HHS0101.Y|HHS0201.Y|HHS0301.Y (tyrosine sites that showed >80% reductions (SR >5) in probe labeling in cells treated with compounds (liganded sites))
- liganded tyrosine site 86 [15]: HHS0101.Y|HHS0701.Y (tyrosine sites that showed >80% reductions (SR >5) in probe labeling in cells treated with compounds (liganded sites))
- liganded tyrosine site 51 [16]: HHS0101.Y|HHS0401.Y|HHS0701.Y (tyrosine sites that showed >80% reductions (SR >5) in probe labeling in cells treated with compounds (liganded sites))
- liganded tyrosine site 145 [17]: HHS0101.Y (tyrosine sites that showed >80% reductions (SR >5) in probe labeling in cells treated with compounds (liganded sites))
- liganded tyrosine site 304 [17]: HHS0101.Y (tyrosine sites that showed >80% reductions (SR >5) in probe labeling in cells treated with compounds (liganded sites))
